Test results: patent US20260250318A1, “COMPOSITIONS AND METHODS FOR CROSSING THE BLOOD BRAIN BARRIER” (VOYAGER THERAPEUTICS, INC., priority 2022, published 2026)

Columns and labels:
Settings in all cases: synthetic library passage 3, intravenous, relative to wild-type AAV9
[1] = tested on: brain, spinal cord, and DRG of the NHPs; test: NGS fold enrichment of synthetic library (passage 3) in NHPs, first cross-species screen; assay type: in vivo, cynomolgus macaques (Macaca fascicularis)
In short: (§1)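 Passage-3 synthetic capsid library given intravenously […] to NHPs (2-4 years) and BALB/c or C57Bl/6 mice (n=3, 6-8 weeks). After e.g. 28 days, tissue RNA was RT-PCR amplified and NGS-sequenced; values are fold enrichment of each variant relative to wild-type AAV9.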

brain [2] = test: NGS fold enrichment of synthetic library (passage 3) in BALB/c mice, first cross-species screen; assay type: in vivo
In short: as §1

brain [3] = test: NGS fold enrichment of synthetic library (passage 3) in C57Bl/6 mice, first cross-species screen; assay type: in vivo
In short: as §1

[4] = RNA from spinal cord of NHPs, NGS
[5] = RNA from brain of BALB/c mice, NGS
[6] = RNA from brain of C57Bl/6 mice, NGS

Sequence | Fold enrichment over AAV9 in the brain of NHPs ([1]; RNA NGS, brain of NHPs) | Fold enrichment over AAV9 in the spinal cord of NHPs ([1]; RNA NGS, spinal cord of NHPs) | Fold enrichment over AAV9 in the brain of Mice (BALB/c) (brain [2]; RNA NGS, brain of BALB/c mice) | Fold enrichment over AAV9 in the brain of Mice (C57Bl/6) (brain [3]; RNA NGS, brain of C57Bl/6 mice) | Fold enrichment over AAV9 in the brain of NHPs ([1]; RNA from brain of NHPs, NGS) | Fold enrichment over AAV9 in the spinal cord of NHPs [1, 4] | Fold enrichment over AAV9 in the brain of Mice (BALB/c) (brain [2]; [5]) | Fold enrichment over AAV9 in the brain of Mice (C57Bl/6) (brain [3]; [6])
GSGQNQQTVGNPAT | 1.008 fold | 3.014 fold | 0.395 fold | 0.856 fold | – | – | – | –
GSGQNQQTVMTARA | 1.117 fold | 1.535 fold | 0.843 fold | 0.995 fold | – | – | – | –
GSGQNQQTVPSNLV | – | – | – | – | 1.201 fold | 0.791 fold | 0.281 fold | 0.434 fold
GSGQNQQTVPTRQT | 1.040 fold | 1.207 fold | 0.138 fold | 0.629 fold | – | – | – | –
GSGQNQQTVQSNLV | 1.103 fold | 2.350 fold | 0.698 fold | 0.577 fold | – | – | – | –
GSGQNQQTVSRQST | 1.820 fold | 0.472 fold | 0.796 fold | 1.330 fold | – | – | – | –
GSGQNQQVAGLNNT | – | – | – | – | 1.386 fold | 3.218 fold | 0.492 fold | 0.449 fold
GSGQNQQVAIRTST | 1.035 fold | 2.447 fold | 0.370 fold | 0.963 fold | – | – | – | –
GSGQNQQVGGKTVT | 1.032 fold | 6.195 fold | 0.821 fold | 1.094 fold | – | – | – | –
GSGQNQQVGSTVRT | 1.124 fold | 2.040 fold | 0.614 fold | 0.918 fold | – | – | – | –
GSGQNQQVHLSTGT | 1.811 fold | 0.266 fold | 0.455 fold | 1.011 fold | – | – | – | –
GSGQNQQVIPNSKT | 1.548 fold | 1.036 fold | 0.376 fold | 0.844 fold | – | – | – | –
GSGQNQQVIQGSNT | 2.521 fold | 8.778 fold | 0.810 fold | 0.935 fold | – | – | – | –
GSGQNQQVLTTART | 1.434 fold | 4.142 fold | 0.948 fold | 1.071 fold | – | – | – | –
GSGQNQQWDSRRQT | – | – | – | – | 1.321 fold | 0.531 fold | 0.825 fold | 1.059 fold
GSGQNQQYAGKILT | 1.112 fold | 0.300 fold | 0.431 fold | 1.078 fold | – | – | – | –
GSGQNQRASILVQT | – | – | – | – | 1.162 fold | 3.632 fold | 0.569 fold | 0.531 fold
GSGQNQRATLSNQT | – | – | – | – | 1.339 fold | 1.084 fold | 0.723 fold | 0.947 fold
GSGQNQRAVLNDQT | – | – | – | – | 1.242 fold | 3.023 fold | 0.259 fold | 0.556 fold
GSGQNQRGALATQT | 1.722 fold | 1.117 fold | 0.891 fold | 0.899 fold | – | – | – | –

Sequence | Fold enrichment over AAV9 in the brain of NHPs ([1]; RNA NGS, brain of NHPs) | Fold enrichment over AAV9 in the spinal cord of NHPs ([1]; RNA NGS, spinal cord of NHPs) | Fold enrichment over AAV9 in the brain of Mice (BALB/c) (brain [2]; RNA NGS, brain of BALB/c mice) | Fold enrichment over AAV9 in the brain of Mice (C57Bl/6) (brain [3]; RNA NGS, brain of C57Bl/6 mice) | Fold enrichment over AAV9 in the brain of NHPs ([1]; RNA from brain of NHPs, NGS) | Fold enrichment over AAV9 in the spinal cord of NHPs [1, 4] | Fold enrichment over AAV9 in the brain of Mice (BALB/c) (brain [2]; [5]) | Fold enrichment over AAV9 in the brain of Mice (C57Bl/6) (brain [3]; [6])
GSGQNQRLHGVDQT | – | – | – | – | 1.318 fold | 4.655 fold | 0.341 fold | 0.459 fold
GSGQNQRSSGGVQT | 1.723 fold | 2.056 fold | 1.165 fold | 1.805 fold | – | – | – | –
GSGQNQRTMVATQT | – | – | – | – | 1.130 fold | 1.122 fold | 0.554 fold | 0.649 fold
GSGQNQRVSNSQQT | 2.146 fold | 0.492 fold | 0.985 fold | 1.086 fold | – | – | – | –
GSGQNQSHYPSQQT | – | – | – | – | 1.228 fold | 4.315 fold | 0.402 fold | 0.644 fold
GSGQNQSQNHLQQT | 1.825 fold | 0.600 fold | 0.772 fold | 1.063 fold | – | – | – | –
GSGQNQYLRLELQT | 1.101 fold | 0.000 fold | 0.839 fold | 0.416 fold | – | – | – | –
GSGQNQYSIPVAQT | 1.891 fold | 1.194 fold | 0.297 fold | 0.511 fold | – | – | – | –
GSGQNQYSQSSMQT | 1.494 fold | 4.278 fold | 0.309 fold | 0.375 fold | – | – | – | –
GSGQNQYSSTNPQT | 1.542 fold | 2.251 fold | 0.535 fold | 0.544 fold | – | – | – | –
GSGQNRAHAFLQQT | 1.795 fold | 0.000 fold | 1.271 fold | 1.200 fold | – | – | – | –
GSGQNRAQIGTQQT | – | – | – | – | 1.138 fold | 0.469 fold | 0.654 fold | 0.776 fold
GSGQNRAQSRFQQT | 3.043 fold | 0.000 fold | 1.788 fold | 0.619 fold | – | – | – | –
GSGQNRGISISQQT | 1.057 fold | 2.166 fold | 0.566 fold | 0.686 fold | – | – | – | –
GSGQNRKPASFAQT | 3.204 fold | 0.000 fold | 1.061 fold | 0.892 fold | – | – | – | –
GSGQNSGVHFNQQT | – | – | – | – | 1.268 fold | 0.587 fold | 0.377 fold | 0.871 fold
GSGQNSYSHTSQQT | 1.765 fold | 2.262 fold | 0.658 fold | 1.130 fold | – | – | – | –
GSGQNTGHLTMQQT | 1.114 fold | 0.078 fold | 0.595 fold | 1.026 fold | – | – | – | –
GSGQNTGQHMMQQT | 1.090 fold | 1.058 fold | 0.917 fold | 1.147 fold | – | – | – | –
GSGQNTRLQLGQQT | 1.452 fold | 1.747 fold | 0.234 fold | 0.181 fold | – | – | – | –
